The test system of one data set is F-cells. Nature of the data set: F-cells in Bfu-e erythroid progenitor cultures. It is filed as cell-based.
Another data set deals with γ-globin mRNA. Nature of the data set: γ-globin mRNA in anemic baboons given HU and DMB. In kind it is in vivo. The note with it: HU 3 days/week.
The subject of a further data set is fetal globin. The note with it: cited from earlier work.
For data set [1], the system named is micronucleated erythrocytes (PCEs). The note with it: cited from earlier work.
In data set [2] the test system is β- and γ-globin gene promoters. Nature of the data set: Double-luciferase reporter assay of γ-globin expression in GM979 cells. In kind it is cell-based, murine. An excerpt:
DMB was compared to arginine butyrate (AB) for its ability to induce y-globin expression in a double-luciferase reporter assay in murine erythroleukemia (GM979) cells transfected with the pLCR linked to the β- and γ-globin gene promoters linked to a different luciferase gene.
In general terms: In a reporter assay the amount or activity of a reporter protein is the signal.

Marks after values point to notes of the source that are not given here.

As to `Nc1ncn([C@H]2C[C@H](O)[C@@H](CO)O2)c(=O)n1` [decitabine, 5-aza-2′-deoxycytidine, reference compound], the “F-cells increase above F-cell levels in control cultures” value with F-cells is 66-104%. For the compound `NC(=O)NO` [HU, hydroxyurea], the “γ-globin mRNA increase above baseline” value in the data set with γ-globin mRNA is 80-120%. The “patients in whom clinical benefit is observed” value in the data set with fetal globin (SCD patients) is 40-50%. For the same compound, the “treatment required for optimal effects on HbF” value with fetal globin (at a level close to the maximum tolerated dose) was 6-9 months. With `O=P1(N(CCCl)CCCl)NCCCO1` (stereo not shown) [cyclophosphamide], the “historical positive control values, mean±SD” value in data set [1] is reported as 19.2±15.5 MN PCEs/1,000 PCEs. For Arginine butyrate [reference compound], the “Mean Fold Increase” value in data set [2] (0.5 mM, compared to untreated controls, p ≦ 0.01) is given as 1.8*. Also, the “γ/(γ + β) globin Expression, Range” value in data set [2] (Active Concentration 0.5 mM) was 0.029-0.047.

The values are drawn from patent US8618068B2, “Methods and low dose regimens for treating red blood cell disorders” (priority 2009, dated 2013).
